{
  "source": "patent US12303724B2",
  "about": "“Non-adult human dosing of anti-CD30 antibody-drug conjugates for treatment of hematological or lymphoid cancer” (priority 2016, dated 2025)",
  "format_in_all_cases": "in vivo, human",
  "key": {"[1]": {"assay": "Phase 1/2 pediatric study of brentuximab vedotin: serum pharmacokinetics", "conditions": "pediatric patients, 1.4 or 1.8 mg/kg body weight every 3 weeks, AUC versus age (FIG. 1A)", "source_text": "This study had assessment of pharmacokinetics of BV in pediatric patients as one of its objectives.\nThe goal of phase 1 portion of the study was to establish safety and define MTD (maximum tolerated dose) of brentuximab vedotin in pediatric hematological malignancies with high expression of CD30, both HL and ALCL were included in the phase 1 study population. The phase 2 study was designed to administer brentuximab vedotin at the RP2D (recommended phase II dose) determined as the MTD [Maximum Tolerated Dose] in the phase 1 portion of the study.\nBlood samples for determining BV levels from the serum were obtained at several time points during treatment with BV at the dose of 1.4 or 1.8 mg/kg body weight every 3 weeks. These doses were within the range of doses that were previously determined to be safe and efficacious in the adult population in earlier studies (Younes, et al., N. Engl J Med 363; 19, Nov. 2010).\nThe pharmacokinetic analyses described here included pharmacokinetic data from 30 pediatric patients for the initial analyses."}, "[2]": {"system": "CD30-positive cutaneous t-cell lymphomas", "assay": "Example 5: BSA-based BV versus methotrexate or bexarotene in pediatric patients", "conditions": "BV 71.5 mg/m^2 IV every three weeks, monotherapy, up to 16 cycles", "method": "Pediatric (non adult human) patients with CD30-positive cutaneous t-cell lymphomas (Primary Cutaneous Anaplastic Large Cell Lymphoma, Mycosis Fungoides, Cutaneous T-Cell Lymphoma) are provided. Study subjects are randomly assigned to one of the following treatments: 1) BV (administered IV, once every three weeks (21 days)) at a dose of 71.5 mg/m^2 as monotherapy for up to a total of 16 cycles; or 2) physician's choice of methotrexate or bexarotene (methotrexate is administered orally (5 to 50 mg) once weekly; dose adjustment is guided by patient response and toxicity or bexarotene is administered orally (300 mg/m^2) once daily with meals).\nThe proportion of patients achieving an objective response (ORR; complete remission (CR)+partial remission (PR)) that lasts at least 4 months is evaluated. The proportion of patients achieving complete response (CR) and progression-free survival (PFS) are also evaluated."}, "[3]": {"system": "relapsed or refractory (r/r) Hodgkin Lymphoma (HL) or systemic anaplastic large-cell lymphoma (sALCL)", "assay": "Example 2: BSA-based BV monotherapy in pediatric patients", "method": "Pediatric study subjects are administered BV (administered IV infusion, once every three weeks (21 days)) at a dose of 71.5 mg/m^2. Each 21-day treatment cycle is composed of 1 day study drug treatment, followed by a monitoring period of 20 days. Patients may receive BV for up to 16 cycles. Objective response rates (ORR; complete remission (CR)+ partial remission (PR)) are determined by an independent review facility (IRF) using PET, CT, MRI and, clinical assessment according to the International Working Group (IWG) Revised Response Criteria for Malignant Lymphoma. Time to progression (from the first dose of study treatment to the date of first documented progressive disease), time to response (from the first dose of study treatment to the date of first documentation of a complete or partial response), duration of response (from the date of first documentation of a response to the date of progressive disease), event-free survival (from first dose until treatment failure), progression-free survival (PFS; from the first dose of study treatment to disease progression or death), and overall survival (OS; from the first dose of study treatment to date of death) are also evaluated. Patients are followed for progression-free survival (PFS) and overall survival (OS) every 12 weeks for 12 months after the end of treatment (EOT) visit. […]"}},
  "data": [
    {"substance": "brentuximab vedotin", "values": [
      {"measurement": "systemic exposure to BV as measured by the Area Under the concentration-time Curve (AUC)", "setting": "[1]", "value": "decrease in age from about 18 years led to decrease systemic exposure to BV"},
      {"measurement": "ORR, CR, PFS relative to methotrexate or bexarotene", "setting": "[2]", "value": "one or more of improved ORR, CR or PFS"},
      {"measurement": "CR, PR, PFS, OS relative to treatments without BV", "setting": "[3]; 71.5 mg/m^2 IV once every three weeks, up to 16 cycles", "value": "one or more of improved CR, PR, PFS, or OS"},
      {"measurement": "CR, PR, PFS, OS of BSA-adjusted doses relative to weight-adjusted dose", "setting": "[3]; 71.5 mg/m^2 versus BV at a weight-adjusted dose", "value": "one or more of improved CR, PR, PFS or OS"}
    ]}
  ]
}
